Assays:
Type in all cases: cell-based
[1] = system: H1 or H9 human embryonic stem cells; experiment: Activin A bioassay: differentiation of human embryonic stem cells to definitive endoderm, cell number and SOX17 intensity by high content analysis (96-well, four days)
Procedure, shortened: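 Read-out was cell count and integrated SOX17 immunofluorescence by high-content imaging, with each well divided by the mean of the 100 ng/ml activin A control. Over the four-day culture, test samples were given in DMEM:F12 with 0.5% FCS plus 20 ng/ml Wnt3a for the first two days and in 2% FCS alone for the last two. Cells were H1 or H9 hESC clusters grown on Matrigel.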

[2] = system: Human Embryonic Stem Cells (H1 hESC line); experiment: FACS analysis of CXCR4 at conclusion of first step of step-wise differentiation (Example 12); details: 100 ng/ml peptide, end of first step (three days), FIG. 23A, 23B
Procedure: (§1) Preparation of Cells for Assay: Stock Cultures of Human Embryonic Stem Cells (H1 hESC line) were maintained in an undifferentiated, pluripotent state on growth factor-reduced MATRIGEL™-coated dishes in MEF conditioned medium supplemented with bFGF (PeproTech; Cat #100-18B) with passage on average every, four days. Passage was performed by exposing cell cultures to a solution of 1 mg/ml collagenase (Invitrogen, Cat #17104-019) for five to seven minutes at 37° C. followed by rinsing the monolayer with MEF conditioned medium and gentle scraping to recover cell clusters. Clusters were centrifuged at low speed to collect a cell pellet and remove residual collagenase. Cell clusters were split at a 1:3 or 1:4 ratio for routine maintenance culture or a 1:1 ratio for immediate assay. All human ES cell lines were maintained at passage numbers less than 50 and routinely evaluated for normal karyotypic phenotype and for absence of mycoplasma contamination.
(§2) Cell clusters were evenly resuspended in MEF conditioned medium supplemented with 8 ng/ml bFGF and seeded onto growth factor-reduced MATRIGEL™-coated 24-well, black wall culture plates (Arctic White; Cat #AWLS-303012) in volumes of 0.5 ml/well. Daily feeding was conducted by aspirating spent culture medium from each well and replacing with an equal volume of fresh medium. Plates were maintained at 37° C., 5% CO2 throughout the duration of assay.
(§3) Assay: The assay was initiated by aspirating culture medium from each well and adding back an aliquot (0.5 ml) of test medium. Test conditions for the first step of differentiation were conducted over a three-day period, feeding daily by aspirating and replacing the medium from each well with fresh test medium. Concentrated supernatants of the ACTN peptides were evaluated for protein concentration using a DuoSet ELISA kit for human activin A (R&D Systems; Cat #DY338), as previously described in Example 11. On the first day of assay, ACTN peptides were diluted to a final concentration of 100 ng/ml in RPMI 1640 medium (Invitrogen; Cat #: 22400) with 2% Albumin Bovine Fraction V, Fatty Acid Free (FAF BSA) (MP Biomedicals, Inc; Cat #152401), 8 ng/ml bFGF, and 20 ng/ml Wnt3a (R&D Systems; Cat #1324-WN/CF) and then added to the assay wells. On the second and third day of assay, ACTN peptides were diluted into RPMI 1640 medium supplemented with 2% fatty acid free BSA and 8 ng/ml bFGF, without any Wnt3a and then added to the assay wells. A positive control sample included a commercial source of activin A (PeproTech; Cat #12 0-14) diluted in culture medium with growth factors as indicated. At the conclusion of three days culture, cells from some wells were harvested for analysis by flow cytometry to evaluate levels of CXCR4, a marker of definitive endoderm formation. […]

[3] = system: Human Embryonic Stem Cells (H1 hESC line); experiment: High content analysis of cell number and SOX17 expression at end of first step of differentiation (Example 12); details: 100 ng/ml peptide, FIG. 23C-F
Procedure: as §1, §2, §3

**Q.** Which results are given for activin A [reference compound]?
**A.** SOX17 expression ([1]; Wnt3a omitted from treatment on days 1 and 2): failed to produce measurable SOX17 expression; Optimal activin A effects for induction of SOX17 expression (concentration range) ([1]; commercial activin A (Peprotech), 20 ng/ml Wnt3a on days 1 and 2, four days): 100 to 200 ng/mL; EC50 for induction of SOX17 expression ([1]; commercial activin A (Peprotech), two-fold dilution curve, 20 ng/ml Wnt3a on days 1 and 2, four days): 0.03 to 0.05 µg/mL; CXCR4 expression (FACS) [2]: equivalent and robust CXCR4 expression; cell number and SOX17 expression (high content analysis) [3]: equivalent results

Reference: US20110091971A1, “Differentiation of Pluripotent Stem Cells” (priority 2008, published 2011)
